Literature values as cited in US20230158030A1, “METHODS AND COMPOSITION FOR TREATMENT OF COVID-19 ILLNESS REQUIRING HOSPITALIZATION” (OHIO STATE INNOVATION FOUNDATION, priority 2020, published 2023).

Tests used:
T-cell function = settings: TLR agonists, PD1 blockade, CAR-T cells
[1] = tested on: CAR-T cell mediated cytokine release syndrome; settings: murine CAR-T cytokine release syndrome model
pneumococcal pneumonia = settings: murine pneumococcal pneumonia
covid-19 = settings: active covid-19 syndrome
[2] = intranasally to mice starting 72 h after lethal infection

| SMILES | enhancement of other T-cell based therapies (T-cell function) | T-cell expansion or killing [1] | survival [1] | antibiotic mediated killing of bacteria (pneumococcal pneumonia) | monocyte and neutrophil influx into the lung, alveolar macrophage activation, neutrophil influx, cytokine release and plasma leakage (pneumococcal pneumonia) | overall survival (influenza A virus; [2]) | weight loss (influenza A virus; [2]) | inflammatory mediators TNFalpha, IL-1beta, IL-6, KC, and MCP-1 (influenza A virus; mice, lethal influenza A) | morphological changes to the lungs (influenza A virus; mice, lethal influenza A) | benefit among ill patients (covid-19) |
| --- | --- | --- | --- | --- | --- | --- | --- | --- | --- | --- |
| C=CC(=O)N1CCC[C@@H](n2nc(-c3ccc(Oc4ccccc4)cc3)c3c(N)ncnc32)C1 [ibrutinib, 1-[(3R)-3-[4-amino-3-(4-phenoxyphenyl)pyrazolo[3,4-d]pyrimidin-1-yl]piperidin-1-yl]prop-2-en-1-one] | enhance other T-cell based therapies | not abrogating T-cell expansion or killing | improved survival | not impaired | negatively influence | improved overall survival | diminished weight loss | diminished | decreased alveolar hemorrhage, interstitial thickening, and the presence of alveolar exudate |  |
| CCN(CCO)CCCC(C)Nc1ccnc2cc(Cl)ccc12 (stereo not shown) [hydroxychloraquine] |  |  |  |  |  |  |  |  |  | antidotal benefit |
